Test results taken from the supplement of paper PMC12076712.

Legend:
Assay in all cases: pIC50, kinobeads binding competition
DAPK1 = DAPK1 (UniProt P53355); settings: cell material: Lysate mix
Outline: (§1)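 pIC50 was obtained by fitting fold changes against vehicle to logistic dose-response curves with the R drc package, using biological duplicates. Kinobeads-bound proteins were digested and measured by TMT10 LC-MS/MS. Before this, either living Jurkat cells received nine compound concentrations (top 30 μM, 1:4 steps) for 60 min at 37 °C prior to lysis, or Jurkat lysate or a 1:1:1:1 HEK293/K-562/HepG2/placenta lysate mix received nine concentrations (top 30 μM, 1:5 steps) for 60 min at 4 °C.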

Fes = Fes (UniProt P07332); settings: cell material: Lysate mix
Sequence of Fes (P07332 whole entry): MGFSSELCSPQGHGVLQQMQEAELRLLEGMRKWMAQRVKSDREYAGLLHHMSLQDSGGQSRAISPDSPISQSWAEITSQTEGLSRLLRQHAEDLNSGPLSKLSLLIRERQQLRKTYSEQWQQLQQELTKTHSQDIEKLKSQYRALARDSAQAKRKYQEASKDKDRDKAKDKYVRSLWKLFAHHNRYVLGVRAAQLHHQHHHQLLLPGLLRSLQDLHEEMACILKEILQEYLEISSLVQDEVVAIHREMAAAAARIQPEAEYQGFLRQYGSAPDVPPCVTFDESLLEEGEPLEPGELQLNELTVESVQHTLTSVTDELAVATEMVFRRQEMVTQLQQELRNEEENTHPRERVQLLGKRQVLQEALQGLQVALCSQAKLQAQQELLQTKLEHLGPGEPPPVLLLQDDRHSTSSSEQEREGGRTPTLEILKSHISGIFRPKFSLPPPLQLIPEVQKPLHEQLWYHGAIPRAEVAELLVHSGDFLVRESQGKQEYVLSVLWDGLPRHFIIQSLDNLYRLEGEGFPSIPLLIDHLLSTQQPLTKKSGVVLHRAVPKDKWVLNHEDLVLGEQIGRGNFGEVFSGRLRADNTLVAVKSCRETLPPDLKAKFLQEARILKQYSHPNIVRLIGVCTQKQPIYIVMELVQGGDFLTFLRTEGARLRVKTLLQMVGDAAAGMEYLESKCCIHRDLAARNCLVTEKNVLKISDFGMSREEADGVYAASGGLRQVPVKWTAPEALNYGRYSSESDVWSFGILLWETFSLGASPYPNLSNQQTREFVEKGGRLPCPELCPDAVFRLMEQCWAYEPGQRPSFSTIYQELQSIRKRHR
Outline: as §1

LIMK2 = LIMK2 (UniProt P53671)
Sequence of LIMK2 (P53671 whole entry, looked up): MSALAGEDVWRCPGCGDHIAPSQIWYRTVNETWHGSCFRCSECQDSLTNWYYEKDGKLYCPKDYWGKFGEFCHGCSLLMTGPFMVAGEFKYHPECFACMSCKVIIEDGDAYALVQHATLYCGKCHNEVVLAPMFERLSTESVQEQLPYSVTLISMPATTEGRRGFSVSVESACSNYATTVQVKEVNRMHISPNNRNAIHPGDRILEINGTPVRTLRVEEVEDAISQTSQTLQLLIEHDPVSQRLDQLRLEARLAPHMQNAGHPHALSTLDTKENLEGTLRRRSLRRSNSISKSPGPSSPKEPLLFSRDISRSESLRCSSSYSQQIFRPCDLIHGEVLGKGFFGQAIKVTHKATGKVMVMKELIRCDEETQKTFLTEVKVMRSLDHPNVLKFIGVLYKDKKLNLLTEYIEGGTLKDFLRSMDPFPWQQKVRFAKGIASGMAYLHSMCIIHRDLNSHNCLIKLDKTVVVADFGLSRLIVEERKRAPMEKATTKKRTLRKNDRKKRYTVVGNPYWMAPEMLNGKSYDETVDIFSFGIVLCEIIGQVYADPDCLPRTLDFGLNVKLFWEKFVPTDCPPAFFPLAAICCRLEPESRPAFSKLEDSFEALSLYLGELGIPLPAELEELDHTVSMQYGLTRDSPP
Outline: as §1

TBK1 = target: T1, TBK1 (UniProt Q9UHD2)
T1 sequence (whole entry): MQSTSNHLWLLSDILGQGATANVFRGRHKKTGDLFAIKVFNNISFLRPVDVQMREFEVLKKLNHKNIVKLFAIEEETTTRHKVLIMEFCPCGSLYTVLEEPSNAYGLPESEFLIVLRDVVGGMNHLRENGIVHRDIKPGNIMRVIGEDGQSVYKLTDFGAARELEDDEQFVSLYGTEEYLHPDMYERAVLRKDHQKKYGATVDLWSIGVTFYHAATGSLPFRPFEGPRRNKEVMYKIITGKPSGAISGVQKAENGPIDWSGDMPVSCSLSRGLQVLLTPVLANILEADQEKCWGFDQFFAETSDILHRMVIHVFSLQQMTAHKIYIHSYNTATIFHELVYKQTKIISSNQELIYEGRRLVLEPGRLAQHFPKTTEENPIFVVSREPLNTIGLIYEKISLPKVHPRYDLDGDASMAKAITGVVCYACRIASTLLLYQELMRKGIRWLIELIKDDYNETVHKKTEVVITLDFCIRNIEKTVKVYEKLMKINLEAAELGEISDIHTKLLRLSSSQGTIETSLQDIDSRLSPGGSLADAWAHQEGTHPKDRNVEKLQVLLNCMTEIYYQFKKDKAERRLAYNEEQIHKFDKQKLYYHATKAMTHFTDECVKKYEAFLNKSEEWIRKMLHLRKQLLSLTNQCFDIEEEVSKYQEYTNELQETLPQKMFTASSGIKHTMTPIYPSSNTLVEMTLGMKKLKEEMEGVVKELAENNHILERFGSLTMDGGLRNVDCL
Outline: as §1

UniProt P00519 = target: UniProt P00519
Sequence of UniProt P00519 (P00519 whole entry): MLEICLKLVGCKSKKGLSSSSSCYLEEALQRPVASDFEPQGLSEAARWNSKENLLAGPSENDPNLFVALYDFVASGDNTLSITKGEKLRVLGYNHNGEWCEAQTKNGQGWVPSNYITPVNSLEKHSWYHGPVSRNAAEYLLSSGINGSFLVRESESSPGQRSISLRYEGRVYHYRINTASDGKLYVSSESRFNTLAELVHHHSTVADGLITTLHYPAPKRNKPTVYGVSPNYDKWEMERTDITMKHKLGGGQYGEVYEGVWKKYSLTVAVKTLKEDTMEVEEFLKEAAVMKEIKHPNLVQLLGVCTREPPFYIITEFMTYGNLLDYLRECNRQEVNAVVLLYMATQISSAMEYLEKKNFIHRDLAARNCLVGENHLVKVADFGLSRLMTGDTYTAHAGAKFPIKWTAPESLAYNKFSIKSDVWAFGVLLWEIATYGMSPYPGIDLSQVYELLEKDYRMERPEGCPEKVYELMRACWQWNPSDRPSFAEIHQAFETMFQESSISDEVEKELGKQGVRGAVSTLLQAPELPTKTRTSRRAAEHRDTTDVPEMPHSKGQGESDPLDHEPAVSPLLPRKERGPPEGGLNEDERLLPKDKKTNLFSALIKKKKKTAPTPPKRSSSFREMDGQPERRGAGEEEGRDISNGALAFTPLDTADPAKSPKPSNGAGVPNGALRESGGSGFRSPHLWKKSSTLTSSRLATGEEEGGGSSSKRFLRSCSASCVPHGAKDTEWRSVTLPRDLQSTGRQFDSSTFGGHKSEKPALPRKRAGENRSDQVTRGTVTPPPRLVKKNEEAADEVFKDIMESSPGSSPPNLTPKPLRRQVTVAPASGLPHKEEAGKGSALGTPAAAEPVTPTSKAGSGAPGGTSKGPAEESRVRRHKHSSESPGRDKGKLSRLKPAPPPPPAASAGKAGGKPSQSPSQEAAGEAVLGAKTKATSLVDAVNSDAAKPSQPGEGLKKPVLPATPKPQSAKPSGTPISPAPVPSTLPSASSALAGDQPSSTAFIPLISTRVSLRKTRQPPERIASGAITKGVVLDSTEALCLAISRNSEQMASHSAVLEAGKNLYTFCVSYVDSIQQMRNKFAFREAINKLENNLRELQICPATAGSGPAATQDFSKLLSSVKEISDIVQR
Outline: as §1

UniProt P52564 = target: T2, UniProt P52564
T2 sequence (whole entry): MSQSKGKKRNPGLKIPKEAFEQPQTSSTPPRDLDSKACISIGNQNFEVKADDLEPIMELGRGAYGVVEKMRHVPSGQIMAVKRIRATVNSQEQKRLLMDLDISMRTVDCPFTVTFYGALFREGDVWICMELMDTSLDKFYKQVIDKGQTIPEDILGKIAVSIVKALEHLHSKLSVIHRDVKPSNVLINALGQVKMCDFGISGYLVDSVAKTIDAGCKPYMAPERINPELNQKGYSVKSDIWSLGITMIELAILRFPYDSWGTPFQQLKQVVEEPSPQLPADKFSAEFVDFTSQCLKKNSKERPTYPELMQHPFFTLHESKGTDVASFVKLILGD
Outline: as §1

UniProt Q02779 = settings: cell material: Lysate mix
Sequence of UniProt Q02779 (Q02779 whole entry, looked up): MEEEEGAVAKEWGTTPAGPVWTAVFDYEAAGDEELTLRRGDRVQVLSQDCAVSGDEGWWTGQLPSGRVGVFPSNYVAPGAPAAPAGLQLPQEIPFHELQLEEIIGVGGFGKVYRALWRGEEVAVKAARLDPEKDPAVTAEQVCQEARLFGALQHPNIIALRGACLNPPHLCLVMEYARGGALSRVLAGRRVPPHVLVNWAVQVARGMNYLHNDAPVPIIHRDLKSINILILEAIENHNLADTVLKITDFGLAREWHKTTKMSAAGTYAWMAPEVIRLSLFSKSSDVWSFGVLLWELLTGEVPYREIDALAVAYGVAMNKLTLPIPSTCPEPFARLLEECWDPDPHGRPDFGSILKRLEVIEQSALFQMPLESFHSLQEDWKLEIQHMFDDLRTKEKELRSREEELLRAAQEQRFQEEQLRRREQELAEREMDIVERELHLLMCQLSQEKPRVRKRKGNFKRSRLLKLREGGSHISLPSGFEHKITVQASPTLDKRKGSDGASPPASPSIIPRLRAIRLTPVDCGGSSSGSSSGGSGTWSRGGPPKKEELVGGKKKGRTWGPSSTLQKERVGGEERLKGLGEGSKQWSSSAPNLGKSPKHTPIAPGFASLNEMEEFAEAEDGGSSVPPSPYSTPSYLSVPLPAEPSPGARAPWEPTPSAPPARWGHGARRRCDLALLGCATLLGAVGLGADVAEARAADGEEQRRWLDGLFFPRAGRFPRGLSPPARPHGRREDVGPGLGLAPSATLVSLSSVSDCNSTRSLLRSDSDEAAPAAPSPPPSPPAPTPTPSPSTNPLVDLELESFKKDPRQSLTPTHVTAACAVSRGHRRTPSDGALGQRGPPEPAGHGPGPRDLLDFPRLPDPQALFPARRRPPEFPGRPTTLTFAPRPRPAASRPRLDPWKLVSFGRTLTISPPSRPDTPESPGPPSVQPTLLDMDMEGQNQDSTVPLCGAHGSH
Outline: as §1

UniProt Q9P289 = target: UniProt Q9P289
Sequence of UniProt Q9P289 (Q9P289 whole entry, looked up): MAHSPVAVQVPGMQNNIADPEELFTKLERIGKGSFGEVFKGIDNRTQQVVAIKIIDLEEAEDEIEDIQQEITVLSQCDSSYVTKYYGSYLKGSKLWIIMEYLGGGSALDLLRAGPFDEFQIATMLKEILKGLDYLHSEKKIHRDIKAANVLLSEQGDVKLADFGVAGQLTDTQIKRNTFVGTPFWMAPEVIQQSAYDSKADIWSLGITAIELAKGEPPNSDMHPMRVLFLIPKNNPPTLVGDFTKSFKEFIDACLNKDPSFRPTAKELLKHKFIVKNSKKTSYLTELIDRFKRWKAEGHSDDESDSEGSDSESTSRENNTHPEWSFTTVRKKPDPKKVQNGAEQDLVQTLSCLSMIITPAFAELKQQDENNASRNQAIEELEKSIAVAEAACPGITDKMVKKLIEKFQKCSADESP
Outline: as §1

UniProt P57059 = settings: cell material: Lysate mix
Sequence of UniProt P57059 (P57059 whole entry): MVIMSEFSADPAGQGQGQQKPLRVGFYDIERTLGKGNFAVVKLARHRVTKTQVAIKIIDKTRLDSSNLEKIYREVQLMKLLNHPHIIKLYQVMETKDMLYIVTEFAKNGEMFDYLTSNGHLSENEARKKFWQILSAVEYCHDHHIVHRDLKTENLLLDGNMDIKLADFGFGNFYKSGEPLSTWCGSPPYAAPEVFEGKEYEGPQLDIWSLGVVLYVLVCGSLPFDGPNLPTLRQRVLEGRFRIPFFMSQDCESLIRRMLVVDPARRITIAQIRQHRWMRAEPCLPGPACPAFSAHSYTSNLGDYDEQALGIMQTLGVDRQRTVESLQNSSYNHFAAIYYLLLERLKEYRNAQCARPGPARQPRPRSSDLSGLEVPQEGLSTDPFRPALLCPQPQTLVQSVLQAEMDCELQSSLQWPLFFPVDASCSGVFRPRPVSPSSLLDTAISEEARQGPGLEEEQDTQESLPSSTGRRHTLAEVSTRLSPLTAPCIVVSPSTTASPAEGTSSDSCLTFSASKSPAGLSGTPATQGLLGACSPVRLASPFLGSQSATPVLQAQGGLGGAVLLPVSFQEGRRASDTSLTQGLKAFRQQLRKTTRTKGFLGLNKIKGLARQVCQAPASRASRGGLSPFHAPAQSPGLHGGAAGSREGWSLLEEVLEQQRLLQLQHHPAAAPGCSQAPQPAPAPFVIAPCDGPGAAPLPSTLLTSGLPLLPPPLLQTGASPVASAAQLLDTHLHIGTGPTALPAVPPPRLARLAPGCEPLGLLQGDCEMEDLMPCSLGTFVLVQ
Outline: as §1

UniProt Q96D53 = target: T3, UniProt Q96D53
T3 sequence (whole entry): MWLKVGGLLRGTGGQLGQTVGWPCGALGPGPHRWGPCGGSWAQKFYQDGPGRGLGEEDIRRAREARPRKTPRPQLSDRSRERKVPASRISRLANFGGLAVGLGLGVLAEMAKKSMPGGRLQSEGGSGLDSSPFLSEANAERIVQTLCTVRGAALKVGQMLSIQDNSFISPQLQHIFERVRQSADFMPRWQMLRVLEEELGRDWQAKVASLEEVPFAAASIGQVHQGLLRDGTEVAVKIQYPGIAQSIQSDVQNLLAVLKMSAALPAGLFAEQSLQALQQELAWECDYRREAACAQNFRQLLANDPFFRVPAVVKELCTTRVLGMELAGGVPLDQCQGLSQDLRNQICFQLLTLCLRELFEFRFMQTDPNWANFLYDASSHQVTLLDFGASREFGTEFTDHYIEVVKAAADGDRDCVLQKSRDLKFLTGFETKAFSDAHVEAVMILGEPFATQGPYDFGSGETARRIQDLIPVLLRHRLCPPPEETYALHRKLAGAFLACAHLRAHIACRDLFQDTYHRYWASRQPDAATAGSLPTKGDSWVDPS
Outline: as §1

pIC50 (DAPK1)	pIC50 (Fes)	pIC50 (LIMK2; cell material: Lysate mix)	pIC50 (TBK1; cell material: Lysate mix)	pIC50 (UniProt P00519; cell material: Lysate mix)	pIC50 (UniProt P52564; cell material: Lysate mix)	pIC50 (UniProt Q02779)	pIC50 (UniProt Q9P289; cell material: Lysate mix)	pIC50 (UniProt P57059)	pIC50 (UniProt Q96D53; cell material: Lysate mix)	pIC50 (UniProt Q9P289; cell material: Jurkat lysate)	SMILES	pIC50 (LIMK2; cell material: Jurkat cells)	pIC50 (LIMK2; cell material: Jurkat lysate)	pIC50 (TBK1; cell material: Jurkat cells)	pIC50 (TBK1; cell material: Jurkat lysate)	pIC50 (UniProt P00519; cell material: Jurkat cells)	pIC50 (UniProt P00519; cell material: Jurkat lysate)	pIC50 (UniProt P52564; cell material: Jurkat cells)	pIC50 (UniProt P52564; cell material: Jurkat lysate)	pIC50 (UniProt Q96D53; cell material: Jurkat cells)	pIC50 (UniProt Q9P289; cell material: Jurkat cells)
< 4.52	< 4.52	–	< 4.52	< 4.52	–	< 4.52	–	–	–	–	C#CCNC(=O)c1cc(Nc2cc(C)[nH]n2)nc(N2CCN(Cc3ccc(S(=O)(=O)F)cc3)CC2)n1	–	–	–	–	–	–	–	–	–	–
–	< 4.52	4.62	–	< 4.52	4.62	< 4.52	–	< 4.52	< 4.52	–	CCNC(=O)c1cc(Nc2cc(C)[nH]n2)nc(N2CCN(Cc3ccc(S(=O)(=O)F)cc3)CC2)n1	–	–	–	–	–	–	–	–	–	–

Second part, the compound before the results:

SMILES	pIC50 (DAPK1)	pIC50 (Fes)	pIC50 (LIMK2; cell material: Lysate mix)	pIC50 (TBK1; cell material: Lysate mix)	pIC50 (UniProt P00519; cell material: Lysate mix)	pIC50 (UniProt P52564; cell material: Lysate mix)	pIC50 (UniProt Q02779)	pIC50 (UniProt Q9P289; cell material: Lysate mix)	pIC50 (UniProt P57059)	pIC50 (UniProt Q96D53; cell material: Lysate mix)	pIC50 (UniProt Q9P289; cell material: Jurkat lysate)	pIC50 (LIMK2; cell material: Jurkat cells)	pIC50 (LIMK2; cell material: Jurkat lysate)	pIC50 (TBK1; cell material: Jurkat cells)	pIC50 (TBK1; cell material: Jurkat lysate)	pIC50 (UniProt P00519; cell material: Jurkat cells)	pIC50 (UniProt P00519; cell material: Jurkat lysate)	pIC50 (UniProt P52564; cell material: Jurkat cells)	pIC50 (UniProt P52564; cell material: Jurkat lysate)	pIC50 (UniProt Q96D53; cell material: Jurkat cells)	pIC50 (UniProt Q9P289; cell material: Jurkat cells)
Cc1cc(Nc2cc(C(=O)NCCNC(=O)OC3CC/C=C/CCC3)nc(N3CCN(Cc4ccc(S(=O)(=O)F)cc4)CC3)n2)n[nH]1 (centres undefined)	< 4.52	< 4.52	< 4.52	< 4.52	< 4.52	< 4.52	< 4.52	< 4.52	–	–	–	–	–	–	–	–	–	–	–	–	–
O=C(NCCNC(=O)c1cc(Nc2cc(C3CC3)[nH]n2)nc(N2CCN(Cc3ccc(S(=O)(=O)F)cc3)CC2)n1)OC1CC/C=C/CCC1 (centres undefined)	< 4.52	< 4.52	< 4.52	< 4.52	< 4.52	< 4.52	< 4.52	< 4.52	< 4.52	< 4.52	< 4.52	6.33	< 4.52	5.71	< 4.52	4.86	< 4.52	< 4.52	< 4.52	< 4.52	–
C#CCNC(=O)c1cc(Nc2cc(C3CC3)[nH]n2)nc(N2CCN(Cc3ccc(S(=O)(=O)F)cc3)CC2)n1	< 4.52	5.24	5.53	5.28	4.67	5.21	–	< 4.52	< 4.52	–	–	6.52	5.16	5.98	< 4.52	5.64	4.67	5.61	< 4.52	< 4.52	6.36
CCNC(=O)c1cc(Nc2cc(C3CC3)[nH]n2)nc(N2CCN(Cc3ccc(S(=O)(=O)F)cc3)CC2)n1	4.6	–	5.38	5.34	–	5.2	5.14	–	< 4.52	–	–	–	–	–	–	–	–	–	–	–	–
